Values joined by “and” are separate entries in the source; they are usually repeats but may differ in a detail not shown here. Equal entries are not always repeated.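 Five compound concentrations were applied to cells in 96-well plates for 48 hours; endpoints were derived by simple linear interpolation of the resulting dose-response curve. Abbreviation: GI50, concentration required for 50% inhibition of growth. At the TGI there is no net growth.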

Here are results for 8 molecules from PubChem BioAssay (NCI).

Test systems include UO-31 renal; ACHN renal; SK-MEL-28 melanoma; NCI-H522 lung; KM12 colon; 786-0 renal; HS 578T breast; SNB-19 CNS; HOP-62 NSCLC; SK-MEL-2 melanoma.
Common to all, as to assay: NCI tumour cell line growth inhibition, 48 h

As for `C[C@@H]1CC[C@H]2C(COCC3=C(C(F)(F)F)O[C@@H]4O[C@@]5(C)CC[C@H]6[C@H](C)CC[C@@H]3[C@@]46OO5)=C(C(F)(F)F)O[C@@H]3O[C@@]4(C)CC[C@@H]1[C@]32OO4`, the GI50 in the test on UO-31 renal was less than 0.01 µM; in the test with ACHN renal, 0.028 µM; in the test with NCI-H522 lung it was less than 0.01 µM; in the test on KM12 colon it was less than 0.01 µM; in the test with 786-0 renal, 0.182 µM; with HS 578T breast, 0.152 µM. Further, the TGI in the test on UO-31 renal is greater than 100 µM; in the test on ACHN renal it was greater than 100 µM; in the test on SK-MEL-28 melanoma, greater than 100 µM; in the test with NCI-H522 lung it was 0.073 µM; in the test on KM12 colon, greater than 100 µM; with 786-0 renal, greater than 100 µM. In the test with HS 578T breast, this molecule displayed a TGI greater than 100 µM.
In the case of `C[C@@H]1CC[C@@H]2[C@@H]1[C@H](OC(=O)/C=C/c1ccccc1)[C@]1(c3ccccc3)C[C@@H](OC(=O)CO)[C@@]2(C)O1`, the GI50 in the test with SNB-19 CNS is 20.2 µM; in the test on UO-31 renal it was 0.154 µM; with ACHN renal, 0.179 µM; in the test on HOP-62 NSCLC, 16.2 µM; with SK-MEL-28 melanoma, 16.3 µM; in the test with NCI-H522 lung, 13.2 µM. Moreover, the GI50 in the test with SK-MEL-2 melanoma was 19.6 µM; in the test on KM12 colon, 15.2 µM; in the test with 786-0 renal, 11.7 µM; in the test with HS 578T breast, 0.112 µM. Further, the TGI with SNB-19 CNS came out at 55.9 µM; in the test on UO-31 renal it was 0.305 µM; in the test with ACHN renal, 0.597 µM; in the test on HOP-62 NSCLC it was 31.1 µM; with SK-MEL-28 melanoma it was 33.4 µM; with NCI-H522 lung it was 30 µM. The TGI amounted to 38.3 µM in the test on SK-MEL-2 melanoma, 38.1 µM in the test on KM12 colon, 29.3 µM with 786-0 renal and 0.708 µM in the test with HS 578T breast.
On to `Oc1ccccc1/C=N/Nc1ccc2ccccc2n1`, for which the GI50 with SNB-19 CNS was 5.39 µM; in the test on UO-31 renal, 1.17 µM; in the test on ACHN renal, 2.86 µM; in the test with HOP-62 NSCLC, 7.09 µM; in the test with SK-MEL-28 melanoma it was 11.8 µM; in the test on NCI-H522 lung, 2.36 µM. Besides, the GI50 was 30 µM in the test with SK-MEL-2 melanoma, 3.24 µM with KM12 colon, 5.81 µM in the test with 786-0 renal and 6.87 µM in the test with HS 578T breast. The TGI was greater than 100 µM in the test with SNB-19 CNS; 35.6 µM in the test with UO-31 renal; 68.6 µM in the test on ACHN renal; 44.7 µM in the test with HOP-62 NSCLC; greater than 100 µM with SK-MEL-28 melanoma; 9.41 µM in the test with NCI-H522 lung. For the same molecule, the TGI was greater than 100 µM with SK-MEL-2 melanoma, greater than 100 µM in the test with KM12 colon, greater than 100 µM in the test on 786-0 renal and 76.3 µM in the test on HS 578T breast.
In the case of `O=C(CCN1CCN(c2cnc3ccccc3n2)CC1)c1csc2ccccc12`, the GI50 was greater than 100 µM in the test with SNB-19 CNS; 25.1 µM in the test with UO-31 renal; 19.5 µM with ACHN renal; 58.6 µM in the test with HOP-62 NSCLC; 20 µM with SK-MEL-28 melanoma; 18.4 µM in the test with NCI-H522 lung. Moreover, the GI50 in the test on SK-MEL-2 melanoma is greater than 100 µM; in the test on KM12 colon it was 33.5 µM; with 786-0 renal it was 28.4 µM; with HS 578T breast it was 43.6 µM. The TGI with SNB-19 CNS is greater than 100 µM; in the test with UO-31 renal, 77.5 µM; with ACHN renal, 42.1 µM; in the test with HOP-62 NSCLC it was greater than 100 µM; in the test with SK-MEL-28 melanoma it was 42.7 µM; in the test on NCI-H522 lung, 42.8 µM. Also, the TGI was greater than 100 µM in the test with SK-MEL-2 melanoma, greater than 100 µM in the test on KM12 colon, 79.5 µM in the test with 786-0 renal and greater than 100 µM in the test on HS 578T breast.
As to `O=C1/C(=C/c2ccc(F)cc2)CCOc2ccc([N+](=O)[O-])cc21`, the GI50 is 4.26 µM with SNB-19 CNS; 2.06 µM in the test on UO-31 renal; 28 µM in the test on ACHN renal; 2.89 µM in the test on HOP-62 NSCLC; 1.91 µM in the test with NCI-H522 lung; 3.17 µM in the test on SK-MEL-2 melanoma. Also, the GI50 in the test on KM12 colon was 1.83 µM; in the test on 786-0 renal it was 1.8 µM; in the test with HS 578T breast, 4.94 µM. The TGI in the test on SNB-19 CNS is 16.2 µM; in the test with UO-31 renal it was 5.03 µM; with ACHN renal, 65.4 µM; with HOP-62 NSCLC it was 8.33 µM; in the test with NCI-H522 lung, 4.14 µM; with SK-MEL-2 melanoma it was 11.6 µM. Also, the TGI with KM12 colon came to 4.4 µM; in the test on 786-0 renal it was 3.5 µM; in the test with HS 578T breast, 47.1 µM.
Take `CC(=O)c1ccc(Nc2cc(-c3ccccc3)nc3c(O)cccc23)cc1`: the GI50 was 14 µM in the test on UO-31 renal; 20.5 µM in the test with ACHN renal; 10.6 µM in the test on HOP-62 NSCLC; 23.1 µM with SK-MEL-28 melanoma; 2.98 µM in the test on NCI-H522 lung; 13.2 µM with SK-MEL-2 melanoma. The figures for the GI50 in the test with KM12 colon, with 786-0 renal and in the test on HS 578T breast were 5.72 µM, 8.8 µM and 27 µM, respectively. For the same molecule, the TGI with UO-31 renal was found to be 53.9 µM; in the test on ACHN renal it was 74.1 µM; with HOP-62 NSCLC it was 36 µM; in the test on SK-MEL-28 melanoma, 88.8 µM; in the test on NCI-H522 lung, 9.64 µM; with SK-MEL-2 melanoma, 40.4 µM. In addition, the figures for the TGI with KM12 colon, with 786-0 renal and in the test with HS 578T breast were greater than 100 µM, 83.4 µM and greater than 100 µM, respectively.
As for `O=C(/C=C/c1ccc(Cl)cc1)c1ccc(Cl)cc1Cl`, the GI50 with SNB-19 CNS was 13.3 µM; in the test on UO-31 renal, 7.62 µM; in the test on ACHN renal, 0.213 µM; in the test on HOP-62 NSCLC, 10.9 µM; in the test with NCI-H522 lung, 8.15 µM; with SK-MEL-2 melanoma, 9.55 µM. In addition, the figures for the GI50 in the test with KM12 colon, in the test on 786-0 renal and in the test with HS 578T breast were 5.73 µM, 7.05 µM and 11.7 µM, respectively. Besides, the TGI in the test on SNB-19 CNS was 29.5 µM; in the test on UO-31 renal, 14.4 µM; with ACHN renal, 10.9 µM; with HOP-62 NSCLC it was 25.1 µM; in the test on NCI-H522 lung, 16.8 µM; in the test with SK-MEL-2 melanoma it was 18.9 µM. Further, the values for the TGI with KM12 colon, with 786-0 renal and in the test on HS 578T breast were 13.8 µM, 15.8 µM and 25.9 µM, respectively.
With `COc1ccc2cc1Oc1ccc(cc1)C[C@H]1c3cc(c(OC)cc3CCN1C)Oc1c(OC)c(OC)cc3c1[C@H](C2)N(C)CC3`, the GI50 in the test on SNB-19 CNS is 7.55 µM; in the test on HOP-62 NSCLC, 15.1 µM; in the test on NCI-H522 lung it was 3.27 µM; with 786-0 renal, 5.1 µM; with HS 578T breast, 13.1 µM. Further, the TGI in the test on SNB-19 CNS was 13 µM and 20.1 µM and 60.6 µM; in the test on ACHN renal, 15.4 µM and 27.2 µM and 40 µM; with HOP-62 NSCLC, 15.1 µM and 34.2 µM; in the test on NCI-H522 lung it was 14.9 µM and 12.2 µM and > 100 µM; in the test with 786-0 renal, 12.4 µM and 18 µM and > 100 µM; with HS 578T breast, 19.1 µM and 28.2 µM and > 100 µM.
